We go through 4 compounds from patent US12264163B2, “Compounds and methods for treating fibrotic pathologies” (Mayo Foundation for Medical Education and Research, priority 2019, dated 2025).

pIC50: −log10 of the molar value. Counter-ions that a name gives are not always drawn. Like-named read-outs stand apart in the source and are kept apart here.

The test system of series [1] is YAP/TAZ. As to the kind of experiment: YAP/TAZ nuclear localization in IPF patient-derived lung fibroblasts treated with dopaminergic agonists. The format is cell-based, human. The settings on record: 10 μM, 2 hours. The method, boiled down:
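Fibroblasts from IPF patients (N=4 patient samples) were exposed to dopaminergic agonists at 10 μM for 2 h before fixation. Cells were immunostained for YAP/TAZ with DAPI counterstain and imaged at 4×. Percent nuclear YAP/TAZ localization was quantified by automated image analysis.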

The subject of series [2] is αSMA. Briefly: αSMA intensity (fibroblast activation) in IPF patient-derived lung fibroblasts + TGFβ, dopaminergic agonist library. The format is cell-based, human. Particulars: Homo sapiens, SMA, 72 h, 1 μM + TGFβ, read-out: αSMA intensity (% of DMSO control). Summed up:
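Cells under the indicated conditions were immunostained overnight for αSMA (1:200), with fluorescent secondary antibodies and DAPI. Imaged by fluorescence microscopy. […]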

For series [3] the following is noted: cited from earlier work.
The test system of series [4] is αSMA. As to the kind of experiment: Fibroblast activation: αSMA intensity in TGFβ-stimulated adult lung fibroblasts. The series is classed as cell-based. The settings on record: Homo sapiens, SMA, 2 ng/mL TGFβ 96 hours, compound every 48 hours. How it is done: FIG. 70 contains a line plot showing that compound CTC-3 inhibits fibroblast activation. Adult lung fibroblasts plated into 96-well plates, stimulated with 2 ng/mL TGFβ for 96 hours and treated with the indicated concentration of compounds every 48 hours. Imaging and quantification of αSMA intensity performed through automation using a Cytation 5. (IC50 is 0.3 μM).
FIG. 71 contains a line plot showing that compound CTC-6 inhibits fibroblast activation. Adult lung fibroblasts plated into 96-well plates, stimulated with 2 ng/mL TGFβ for 96 hours and treated with the indicated concentration of compounds every 48 hours. Imaging and quantification of αSMA intensity performed through automation using a Cytation 5.
FIG. 91A contains a line plot showing that compound 1 inhibits fibroblast activation. Adult lung fibroblasts plated into 96-well plates, stimulated with 2 ng/mL TGFβ for 96 hours and treated with the indicated concentration of compounds every 48 hours. Imaging and quantification of αSMA intensity performed through automation using a Cytation 5.
Alpha-smooth muscle actin (αSMA) staining is a well-defined marker of fibroblast activation observed in wound healing and tissue fibrosis. […] Imaging and quantification of αSMA intensity performed through automation using a Cytation 5.

Series [5] has as its system Collagen I. Briefly: Collagen I deposition by TGFβ-stimulated adult lung fibroblasts (LI-COR Odyssey). The format is cell-based. The settings on record: Homo sapiens, Fibroblast, 2 ng/mL TGFβ 96 hours, compound every 48 hours. How it is done: FIG. 72 contains a line plot showing that compound CTC-3 inhibits Collagen I deposition. Adult lung fibroblasts plated into 96-well plates, stimulated with 2 ng/mL TGFβ for 96 hours and treated with the indicated concentration of compounds every 48 hours. Imaging and quantification of Collagen I intensity performed through automation using a LI-COR Odyssey.
FIG. 73 contains a line plot showing that compound CTC-6 inhibits Collagen I deposition. Adult lung fibroblasts plated into 96-well plates, stimulated with 2 ng/mL TGFβ for 96 hours and treated with the indicated concentration of compounds every 48 hours. Imaging and quantification of Collagen I intensity performed through automation using a LI-COR Odyssey. (IC50 is 0.4 μM).
FIG. 91B contains a line plot showing that compound 1 inhibits Collagen I deposition. Adult lung fibroblasts plated into 96-well plates, stimulated with 2 ng/mL TGFβ for 96 hours and treated with the indicated concentration of compounds every 48 hours. Imaging and quantification of Collagen I intensity performed through automation using a LI-COR Odyssey.
Imaging and quantification of collagen I intensity performed through automation using a LI-COR Odyssey.

Series [6] concerns lung fibroblasts. As to the kind of experiment: Fibroblast proliferation (counting DAPI nuclei). Particulars: adult lung fibroblasts, 2 ng/mL TGFβ, DAPI nuclei count. The series is classed as cell-based, human. The procedure: IPF fibroblast and Normal lung fibroblast co-culture proliferation. Cell are prelabelled with fluorescent dyes (red and green) and then cocultured at a ratio of about 1:1 in 96 well plates. Cell counts are determined every 24 hours and plotted as a ratio of IPF/HLF cells. In the control wells the IPF cells outgrow and take over the well. N=2.
Proliferation of lung fibroblasts (IMR-90 cells) measured for 4 days in the presence of GPCR agonists ET-1 (100 nM) and LPA (10 μM)+/−10 μM DHX. Cells were fixed and counted with DAPI at the end of each day. N=3 technical triplicates.
Adult lung fibroblasts plated into 96-well plates, stimulated with 2 ng/mL TGFβ and compounds at the indicated concentration. Proliferation determined by fixing and counting DAPI nuclei using a Cytation 5. N=2.
Fibroblasts were stimulated with 2 ng/mL TGFβ and treated with compound 1 (MS-9) at the indicated concentration (0.1 μM, 1 μM, and 10 μM). Proliferation determined by fixing and counting DAPI nuclei using a Cytation.

Series [7] concerns YAP/TAZ. As to the kind of experiment: YAP/TAZ nuclear localization in adult lung fibroblasts, dose response (Cytation 5). Particulars: Homo sapiens, Fibroblast, 2 h, adult lung fibroblasts sparsely plated, treated 2 hours; read-out: IC50, inhibition of YAP/TAZ nuclear localization. The format is cell-based. The procedure: Adult lung fibroblasts (N=2) sparsely plated into 96-well plates. Treated for 2 hours with compounds prior to fixing and immunostaining for YAP/TAZ.
(§1) Immunofluorescence Microscopy: Cells were plated into 96 well plates (Corning 3603) in their specific growth media and allowed to attach (8 hours). Media was then exchanged for the indicated conditions for each experiment. Cells were fixed in 3.7% formalin (Sigma-Aldrich), permeabilized in 0.25% Triton X-100 (Sigma-Aldrich) and then blocked with 1% BSA for 1 h. Cells or tissue sections were incubated overnight with mouse monoclonal antibody against αSMA (Sigma-Aldrich F3777), and/or a rabbit monoclonal antibody against YAP/TAZ (Cell Signaling D24E4) diluted 1:200 in PBS with 1% BSA. Cells were then washed and exposed to flourescence-conjugated secondary antibodies (Invitrogen) diluted 1:1000 and DAPI (Thermo Fisher Scientific). Images were taken with a Cytation5 (BioTek) microscope. For scoring αSMA positive cells (FIG. 12), an observer blinded to the treatment conditions counted αSMA-positive cells using a visual threshold for bright fibrous staining; a minimum of 200 cells was counted for each condition. YAP/TAZ localization was quantified (FIGS. 6-10, 24-26, and 29-30) using Gen5 (Biotek) software. Images were taken at 4× magnification of both DAPI and YAP/TAZ staining. […] Quantification of double positive (YAP/TAZ and αSMA) cells from lung tissue sections (FIG. 17-21) was performed similarly; however separate thresholds were established for both YAP/TAZ and αSMA. A minimum of 4000 cells was quantified for each mouse.

Series [8] has as its system YAP/TAZ. Briefly: YAP/TAZ nuclear localization in IMR-90 and other fibroblasts / mesenchymal cells (immunofluorescence). The series is classed as cell-based, human. Particulars: fibroblasts / mesenchymal cells on plastic, 2 hours. The procedure: Selective agonists of dopamine receptor D1 with varying efficacy inhibit YAP/TAZ nuclear localization; this effect can be overcome by treatment with a DRD1 receptor antagonist (SCH 39166, 3 μM), (Dihydrexidine, 10 μM). IMR-90 cells treated 2 hours prior to fixation. N=4 (****p<0.0001 vs. 0.10% DMSO vehicle control). Scale bar represents 100 μm.
In each case DHX treatment (10 μM) can reverse this effect on YAP/TAZ. IMR-90 cells plated densely onto plastic cell culture plates for 24 hours in media containing 0.1% FBS, treated for 2 hours prior to fixation. N=4 (****p<0.0001 vs. 0.1% DMSO vehicle control), (++++p<0.0001 vs. the respective stimulated agonist ET-1, LPA, or 5-HT). Scale bar represents 100 μm.
Mesenchymal cells derived from lung (IMR-90 and IPF-FBs) hepatic stellate cells (HSC), human adult cardiac fibroblasts, (HACF) and human dermal fibroblasts (HDF) were plated densely (Confluent) or sparsely (Control and all remaining conditions) onto plastic cell culture plates for 24 hours in media containing 0.10% FBS, treated for 2 hours with Rho kinase inhibitor Y27632, adenylate cyclase activator forskolin and DHX. N=4, Cells that were positive for nuclear YAP/TAZ were quantified by automated image analysis.
as §1

Turning to `CN1CCc2cccc3c2[C@H]1Cc1ccc(O)c(O)c1-3` [(R)-(−)-Apomorphine•HCl, (R)-(−)-Apomorphine], the “Nuclear localization (% of total cells)” value in series [1] (IPF-1 patient fibroblasts) was 29.21 % of total cells; in series [1] (IPF-2 patient fibroblasts), 31.97 % of total cells; in series [1] (IPF-3 patient fibroblasts) it was 27.47 % of total cells; in series [1] (IPF-4 patient fibroblasts), 17.86 % of total cells. The activity at 1 µM came to 7.07% in series [2] (IPF-1 patient fibroblasts), 1.17% in series [2] (IPF-2 patient fibroblasts), 0.962% in series [2] (IPF-3 patient fibroblasts) and 33.7% in series [2] (IPF-4 patient fibroblasts). Further, the “oxidation / stability at physiological pH” value in series [3] was “oxidized into the inactive quinone”.
With `NCC1OC(C2CCOCC2)Cc2c1ccc(O)c2O` (stereo not shown) [CTC-3], the pIC50 in series [4] is 6.52; in series [5], 6.15. The fibroblast proliferation entry in series [6] was “inhibits fibroblast proliferation”.
Regarding `NCC1OC(c2ccncc2)Cc2c1ccc(O)c2O` (stereo not shown) [CTC-6], the values for the pIC50 in series [7], in series [4] and in series [5] were 7.21, 7.00 and 6.40, respectively. Moreover, the fibroblast proliferation result in series [6] is “inhibits fibroblast proliferation”.
Take `Oc1ccc(C2CNCCc3c2cc(O)c(O)c3Cl)cc1` (stereo not shown) [Fenoldopam•HCl, Fenoldopam]: the “Nuclear localization (% of total cells)” value in series [1] (IPF-1 patient fibroblasts) is on record as 68.1 % of total cells; in series [1] (IPF-2 patient fibroblasts), 50.32 % of total cells; in series [1] (IPF-3 patient fibroblasts) it was 66.64 % of total cells; in series [1] (IPF-4 patient fibroblasts), 63 % of total cells. For the same compound, the YAP/TAZ nuclear localization entry in series [8] is on record as “reduced nuclear localization of YAP/TAZ”. The “oxidation / stability at physiological pH” value in series [3] is given as “stable at physiological pH”.
